Data as given in patent US20240409537A1, “Crystal Form of AMG510 Compound, and Preparation Method Thereof and Use Thereof” (BIRDO (SHANGHAI) PHARMACEUTICAL R&D CO., LTD, priority 2021, published 2024).
In brackets after ≈: the same amount, converted by molar mass. Entries after “also recorded” stand apart in the source; their conditions may differ. Like-named read-outs stand apart in the source and are kept apart here.

What was measured:
[1] = Dynamic solubility of crystal form in SGF, FaSSIF, FeSSIF and water (HPLC); format: physicochemical
Protocol: When a drug solubility test was performed to predict the performances of a drug in vivo, it is important to simulate in vivo conditions as much as possible. For oral drugs, simulated gastric fluid (SGF), fasted state simulated intestinal fluid (FaSSIF) and fed state simulated intestinal fluid (FeSSIF) may be used to simulate in vivo conditions and predict a feeding effect, and the solubility tested in such media was closer to the solubility in the human body environment.

[2] = cited from earlier work
[3] = Mechanical stability: manual grinding, XRPD before and after; format: physicochemical; conditions: ground manually in a mortar for 5 min
[4] = Stability of crystal form DCIII on sealed placement (HPLC purity, XRPD crystal form); format: physicochemical
[5] = Hygroscopicity (Chinese Pharmacopoeia 9103, 25±1° C., 80% relative humidity); format: physicochemical; conditions: 80% RH, 24 h
Protocol: According to the description of hygroscopicity characteristics and the definition (9103 Drug Hygroscopicity Experiment Guiding Principles, 2020 edition of General Principles, Chinese Pharmacopoeia, experimental conditions: 25±1° C., 80% relative humidity) of the hygroscopic weight gain: • deliquescent: enough water is absorbed to form liquid • very hygroscopic: the hygroscopic weight gain is not less than 15.0% • hygroscopic: the hygroscopic weight gain is less than 15.0% but not less than 2.0% • slightly hygroscopic: the hygroscopic weight gain is less than 2.0% but not less than 0.2% • no or almost no hygroscopicity: the hygroscopic weight gain is […].

[6] = 25° C./60% RH, 1 month, sealed, listed as crystal form DCIII
[7] = 40° C./75% RH, 1 month, sealed, listed as crystal form DCIII
[8] = 60° C./75% RH, 1 month, sealed, listed as crystal form DCIII

Compound: C=CC(=O)N1CCN(c2nc(=O)n(-c3c(C)ccnc3C(C)C)c3nc(-c4c(O)cccc4F)c(F)cc23)[C@@H](C)C1 [Anhydrous crystal form I, 6-fluoro-7-(2-fluoro-6-hydroxyphenyl)-1-(4-methyl-2-propane-2-ylpyridin-3-yl)-4-[(2S)-2-methyl-4-propyl-2-enoylpiperazin-1-yl]pyridine[2,3-d]pyrimidin-2-one, reference compound]
- Solubility FaSSIF 1 h ([1]; FaSSIF, equilibrated 1 h): 20 µg/mL (≈ 35.7 µM)
- Solubility FaSSIF 4 h ([1]; FaSSIF, equilibrated 4 h): 10 µg/mL (≈ 17.8 µM)
- Solubility FeSSIF 4 h ([1]; FeSSIF, equilibrated 4 h): 40 µg/mL (≈ 71.4 µM)
- Solubility H2O 1 h ([1]; equilibrated 1 h): 10 µg/mL (≈ 17.8 µM)
- Solubility H2O 4 h ([1]; equilibrated 4 h): 10 µg/mL (≈ 17.8 µM)
- Solubility H2O 24 h ([1]; equilibrated 24 h): 10 µg/mL (≈ 17.8 µM)
- solubility at 24 h ([1]; fasted state simulated intestinal fluid (FaSSIF), fassif, thermodynamic from solid, FaSSIF, equilibrated 24 h, read-out: Solubility FaSSIF 24 h): 30 µg/mL (≈ 53.5 µM)
- solubility at 24 h ([1]; fed state simulated intestinal fluid (FeSSIF), fessif, thermodynamic from solid, FeSSIF, equilibrated 24 h, read-out: Solubility FeSSIF 24 h): 60 µg/mL (≈ 107 µM)
- solubility at 1 h ([1]; simulated gastric fluid (SGF), simulated gastric fluid, thermodynamic from solid, SGF, equilibrated 1 h): 3770 µg/mL (≈ 6720 µM)
- solubility at 4 h ([1]; simulated gastric fluid (SGF), simulated gastric fluid, thermodynamic from solid, SGF, equilibrated 4 h): 3860 µg/mL (≈ 6890 µM)
- solubility at 24 h ([1]; simulated gastric fluid (SGF), simulated gastric fluid, thermodynamic from solid, SGF, equilibrated 24 h, read-out: Solubility SGF 24 h): 3110 µg/mL (≈ 5550 µM)
- Solubility (prior-art form, in words) [2]: low solubility

Compound: C=CC(=O)N1CCN(c2nc(=O)n(-c3c(C)ccnc3C(C)C)c3nc(-c4c(O)cccc4F)c(F)cc23)[C@@H](C)C1 [Crystal form DCIII, 6-fluoro-7-(2-fluoro-6-hydroxyphenyl)-1-(4-methyl-2-propane-2-ylpyridin-3-yl)-4-[(2S)-2-methyl-4-propyl-2-enoylpiperazin-1-yl]pyridine[2,3-d]pyrimidin-2-one]
- Solubility FaSSIF 1 h ([1]; FaSSIF, equilibrated 1 h): 50 µg/mL (≈ 89.2 µM)
- Solubility FaSSIF 4 h ([1]; FaSSIF, equilibrated 4 h): 40 µg/mL (≈ 71.4 µM)
- Solubility FaSSIF 24 h ([1]; FaSSIF, equilibrated 24 h): 40 µg/mL (≈ 71.4 µM)
- Solubility FeSSIF 1 h ([1]; FeSSIF, equilibrated 1 h): 150 µg/mL (≈ 268 µM)
- Solubility FeSSIF 4 h ([1]; FeSSIF, equilibrated 4 h): 200 µg/mL (≈ 357 µM)
- Solubility FeSSIF 24 h ([1]; FeSSIF, equilibrated 24 h): 80 µg/mL (≈ 143 µM)
- Solubility H2O 1 h ([1]; equilibrated 1 h): 30 µg/mL (≈ 53.5 µM)
- Solubility H2O 4 h ([1]; equilibrated 4 h): 30 µg/mL (≈ 53.5 µM)
- Solubility H2O 24 h ([1]; equilibrated 24 h): 30 µg/mL (≈ 53.5 µM)
- Solubility compared with anhydrous crystal form I (in words) ([1]; SGF, FaSSIF, FeSSIF and pure water): higher solubility
- Solubility SGF 1 h ([1]; SGF, equilibrated 1 h): 7270 µg/mL (≈ 13000 µM)
- Solubility SGF 4 h ([1]; SGF, equilibrated 4 h): 6240 µg/mL (≈ 11100 µM)
- Solubility SGF 24 h ([1]; SGF, equilibrated 24 h): 4540 µg/mL (≈ 8100 µM)
- Crystal form before and after grinding (XRPD) [3]: remained unchanged; also recorded: no crystal transformation
- Crystallinity after grinding [3]: no significant decrease
- Crystal form (XRPD) ([4]; 25° C./60% RH, 1 month, sealed): Crystal form DCIII
- Purity (HPLC) ([4]; 25° C./60% RH, 1 month, sealed): 99.45%
- Crystal form (XRPD) [4, 6]: remains unchanged
- Purity (HPLC) [4, 6]: above 99%
- Time for which physicochemical stability is maintained ([4]; 25° C./60% RH, 40° C./75% RH and 60° C./75% RH): at least 1 month
- Crystal form (XRPD) ([4]; 40° C./75% RH, 1 month, sealed): Crystal form DCIII
- Purity (HPLC) ([4]; 40° C./75% RH, 1 month, sealed): 99.49%
- Crystal form (XRPD) [4, 7]: remains unchanged
- Purity (HPLC) [4, 7]: does not present a significant decrease
- Crystal form (XRPD) ([4]; 60° C./75% RH, 1 month, sealed): Crystal form DCIII
- Purity (HPLC) ([4]; 60° C./75% RH, 1 month, sealed): 99.50%
- Crystal form (XRPD) [4, 8]: remains unchanged
- Purity (HPLC) [4, 8]: does not present a significant decrease
- Crystal form (XRPD) ([4]; Onset): Crystal form DCIII
- Purity (HPLC) ([4]; Onset): 99.44%
- Weight gain percentage [5]: 0.6%
- Weight gain mass ([5]; onset mass 102.76 mg): 0.64 mg
